# According to US11911346B2, “Orally administrated therapeutic for treating mild cognitive impairment (MCI) and improving human cognitive function” (BrainCare LLC, priority 2021, dated 2024):
# Tested on: cognitive function of participants with Subjective Cognitive Decline
# Assay: Cognitive Failures Questionnaire (CFQ), 8-week randomized study of one or two BCP capsules daily
# Type: in vivo, human
# Conditions: for CFQ score: Do you bump into people? / CFQ score: Do you confuse left and right when giving people directions? / CFQ score: Do you daydream when you ought to be listening to something? / CFQ score: Do you fail to hear people speaking to you when you are doing something? / CFQ score: Do you fail to listen to people's names when you are meeting them for the first time? / CFQ score: Do you fail to notice signposts on the road? / CFQ score: Do you fail to see what you want in a supermarket (although it's there)? / CFQ score: Do you find that you drop things? / CFQ score: Do you find that you forget appointments? / CFQ score: Do you find you accidentally misplace things like placing the fruit in the cupboard and the bowl in the refrigerator? / CFQ score: Do you find you can't quite remember something although it's “on the tip of your tongue”? / CFQ score: Do you find you can't think of anything to say? / CFQ score: Do you find you forget people's names? / CFQ score: Do you find you forget what you came to the store to buy? / CFQ score: Do you find you forget whether you've turned off a light or locked the door? / CFQ score: Do you find you forget which way to turn on a road you know well but rarely use? / CFQ score: Do you find you forget why you went from one place of the house to the other? / CFQ score: Do you find yourself suddenly wondering if you used a word correctly? / CFQ score: Do you forget where you put something like a newspaper or a book? / CFQ score: Do you have trouble making up your mind? / CFQ score: Do you lose track of paying bills? / CFQ score: Do you lose your temper and regret it? / CFQ score: Do you read something and find you haven't been thinking about it and must read it again? / CFQ score: Do you say something and realize afterwards that it might be taken as an insult? / CFQ score: Do you start doing one thing at home and get distracted and do something else (unintentionally)? / Distractibility summed sub-score of CFQ / False triggering summed sub-score of CFQ / Forgetfulness summed sub-score of CFQ / Total CFQ summed sub-score: lower is better
# [1] = one capsule daily (90 mg BCP), week 4
# [2] = one capsule daily (90 mg BCP), week 8
# [3] = two capsules daily (180 mg BCP), week 4
smiles,measurement,setting,value
"C=C1CC/C=C(\C)CC[C@@H]2[C@@H]1CC2(C)C [BCP, beta-caryophyllene]",CFQ % better vs. baseline: Do you bump into people?,[1],29% better
same,CFQ % better vs. baseline: Do you daydream when you ought to be listening to something?,[1],16% better
same,CFQ % better vs. baseline: Do you fail to hear people speaking to you when you are doing something?,[1],15% better
same,CFQ % better vs. baseline: Do you fail to notice signposts on the road?,[1],17% better
same,CFQ % better vs. baseline: Do you fail to see what you want in a supermarket (although it's there)?,[1],14% better
same,CFQ % better vs. baseline: Do you find that you drop things?,[1],14% better
same,CFQ % better vs. baseline: Do you find you accidentally misplace things like placing the fruit in the cupboard and the bowl in the refrigerator?,[1],17% better
same,CFQ % better vs. baseline: Do you find you can't quite remember something although it's “on the tip of your tongue”?,[1],12% better
same,CFQ % better vs. baseline: Do you find you can't think of anything to say?,[1],15% better
same,CFQ % better vs. baseline: Do you find you forget people's names?,[1],12% better
same,CFQ % better vs. baseline: Do you find you forget what you came to the store to buy?,[1],12% better
same,CFQ % better vs. baseline: Do you find you forget whether you've turned off a light or locked the door?,[1],11% better
same,CFQ % better vs. baseline: Do you find you forget which way to turn on a road you know well but rarely use?,[1],27% better
same,CFQ % better vs. baseline: Do you find yourself suddenly wondering if you used a word correctly?,[1],14% better
same,CFQ % better vs. baseline: Do you have trouble making up your mind?,[1],13% better
same,CFQ % better vs. baseline: Do you lose track of paying bills?,[1],23% better
same,CFQ % better vs. baseline: Do you read something and find you haven't been thinking about it and must read it again?,[1],11% better
same,CFQ % better vs. baseline: Do you say something and realize afterwards that it might be taken as an insult?,[1],28% better
same,CFQ % worse vs. baseline: Do you confuse left and right when giving people directions?,[1],17% worse
same,CFQ % worse vs. baseline: Do you find that you forget appointments?,[1],25% worse
same,CFQ change vs. baseline: Do you fail to listen to people's names when you are meeting them for the first time?,[1],No change
same,CFQ change vs. baseline: Do you lose your temper and regret it?,[1],No change
same,CFQ change vs. baseline: Do you start doing one thing at home and get distracted and do something else (unintentionally)?,[1],no change
same,CFQ score: Do you bump into people?,[1],0.5 ± 0.6
same,CFQ score: Do you confuse left and right when giving people directions?,[1],0.7 ± 1.0
same,CFQ score: Do you daydream when you ought to be listening to something?,[1],1.6 ± 0.8
same,CFQ score: Do you fail to hear people speaking to you when you are doing something?,[1],1.7 ± 0.9
same,CFQ score: Do you fail to listen to people's names when you are meeting them for the first time?,[1],2.2 ± 1.1
same,CFQ score: Do you fail to notice signposts on the road?,[1],1.0 ± 0.7
same,CFQ score: Do you fail to see what you want in a supermarket (although it's there)?,[1],1.2 ± 0.7
same,CFQ score: Do you find that you drop things?,[1],1.2 ± 0.9
same,CFQ score: Do you find that you forget appointments?,[1],1.0 ± 0.7
same,CFQ score: Do you find you accidentally misplace things like placing the fruit in the cupboard and the bowl in the refrigerator?,[1],1.0 ± 0.8
same,CFQ score: Do you find you can't quite remember something although it's “on the tip of your tongue”?,[1],2.3 ± 0.8
same,CFQ score: Do you find you can't think of anything to say?,[1],1.1 ± 0.8
same,CFQ score: Do you find you forget people's names?,[1],2.2 ± 1.0
same,CFQ score: Do you find you forget what you came to the store to buy?,[1],1.5 ± 0.8
same,CFQ score: Do you find you forget whether you've turned off a light or locked the door?,[1],1.6 ± 0.8
same,CFQ score: Do you find you forget which way to turn on a road you know well but rarely use?,[1],0.8 ± 0.7
same,CFQ score: Do you find you forget why you went from one place of the house to the other?,[1],1.7 ± 0.6
same,CFQ score: Do you find yourself suddenly wondering if you used a word correctly?,[1],1.2 ± 0.8
same,CFQ score: Do you forget where you put something like a newspaper or a book?,[1],1.8 ± 0.9
same,CFQ score: Do you have trouble making up your mind?,[1],1.3 ± 0.7
same,CFQ score: Do you lose track of paying bills?,[1],1.0 ± 0.8
same,CFQ score: Do you lose your temper and regret it?,[1],1.1 ± 0.7
same,CFQ score: Do you read something and find you haven't been thinking about it and must read it again?,[1],1.7 ± 0.9
same,CFQ score: Do you say something and realize afterwards that it might be taken as an insult?,[1],1.1 ± 1.0
same,CFQ score: Do you start doing one thing at home and get distracted and do something else (unintentionally)?,[1],2.3 ± 0.8
same,Distractibility summed sub-score of CFQ,[1],11 ± 4
same,False triggering summed sub-score of CFQ,[1],9 ± 4
same,Forgetfulness summed sub-score of CFQ,[1],14 ± 5
same,Total CFQ summed sub-score,[1],34 ± 10
same,CFQ % better vs. baseline: Do you daydream when you ought to be listening to something?,[2],11% better
same,CFQ % better vs. baseline: Do you fail to hear people speaking to you when you are doing something?,[2],20% better
same,CFQ % better vs. baseline: Do you fail to listen to people's names when you are meeting them for the first time?,[2],14% better
same,CFQ % better vs. baseline: Do you fail to notice signposts on the road?,[2],17% better
same,CFQ % better vs. baseline: Do you fail to see what you want in a supermarket (although it's there)?,[2],7% better
same,CFQ % better vs. baseline: Do you find that you drop things?,[2],14% better
same,CFQ % better vs. baseline: Do you find you accidentally misplace things like placing the fruit in the cupboard and the bowl in the refrigerator?,[2],25% better
same,CFQ % better vs. baseline: Do you find you forget people's names?,[2],12% better
same,CFQ % better vs. baseline: Do you find you forget what you came to the store to buy?,[2],18% better
same,CFQ % better vs. baseline: Do you find you forget whether you've turned off a light or locked the door?,[2],17% better
same,CFQ % better vs. baseline: Do you find you forget which way to turn on a road you know well but rarely use?,[2],27% better
same,CFQ % better vs. baseline: Do you find yourself suddenly wondering if you used a word correctly?,[2],14% better
same,CFQ % better vs. baseline: Do you have trouble making up your mind?,[2],7% better
same,CFQ % better vs. baseline: Do you lose track of paying bills?,[2],15% better
same,CFQ % better vs. baseline: Do you lose your temper and regret it?,[2],9% better
same,CFQ % better vs. baseline: Do you read something and find you haven't been thinking about it and must read it again?,[2],16% better
same,CFQ % better vs. baseline: Do you say something and realize afterwards that it might be taken as an insult?,[2],20% better
same,CFQ % better vs. baseline: Do you start doing one thing at home and get distracted and do something else (unintentionally)?,[2],4% better
same,CFQ % worse vs. baseline: Do you confuse left and right when giving people directions?,[2],17% worse
same,CFQ % worse vs. baseline: Do you find that you forget appointments?,[2],13% worse
same,CFQ change vs. baseline: Do you bump into people?,[2],No change
same,CFQ change vs. baseline: Do you find you can't think of anything to say?,[2],no change
same,CFQ score: Do you bump into people?,[2],0.7 ± 0.6
same,CFQ score: Do you confuse left and right when giving people directions?,[2],0.7 ± 0.9
same,CFQ score: Do you daydream when you ought to be listening to something?,[2],1.7 ± 0.9
same,CFQ score: Do you fail to hear people speaking to you when you are doing something?,[2],1.6 ± 0.9
same,CFQ score: Do you fail to listen to people's names when you are meeting them for the first time?,[2],1.9 ± 1.2
same,CFQ score: Do you fail to notice signposts on the road?,[2],1.0 ± 0.8
same,CFQ score: Do you fail to see what you want in a supermarket (although it's there)?,[2],1.3 ± 0.9
same,CFQ score: Do you find that you drop things?,[2],1.2 ± 0.7
same,CFQ score: Do you find that you forget appointments?,[2],0.9 ± 0.8
same,CFQ score: Do you find you accidentally misplace things like placing the fruit in the cupboard and the bowl in the refrigerator?,[2],0.9 ± 0.7
same,CFQ score: Do you find you can't quite remember something although it's “on the tip of your tongue”?,[2],2.1 ± 0.7
same,CFQ score: Do you find you can't think of anything to say?,[2],1.3 ± 0.8
same,CFQ score: Do you find you forget people's names?,[2],2.2 ± 0.8
same,CFQ score: Do you find you forget what you came to the store to buy?,[2],1.4 ± 0.8
same,CFQ score: Do you find you forget whether you've turned off a light or locked the door?,[2],1.5 ± 0.7
same,CFQ score: Do you find you forget which way to turn on a road you know well but rarely use?,[2],0.8 ± 0.7
same,CFQ score: Do you find you forget why you went from one place of the house to the other?,[2],1.7 ± 0.6
same,CFQ score: Do you find yourself suddenly wondering if you used a word correctly?,[2],1.2 ± 0.7
same,CFQ score: Do you forget where you put something like a newspaper or a book?,[2],1.8 ± 0.7
same,CFQ score: Do you have trouble making up your mind?,[2],1.4 ± 0.9
same,CFQ score: Do you lose track of paying bills?,[2],1.1 ± 0.8
same,CFQ score: Do you lose your temper and regret it?,[2],1.0 ± 0.6
same,CFQ score: Do you read something and find you haven't been thinking about it and must read it again?,[2],1.6 ± 0.9
same,CFQ score: Do you say something and realize afterwards that it might be taken as an insult?,[2],1.2 ± 0.7
same,CFQ score: Do you start doing one thing at home and get distracted and do something else (unintentionally)?,[2],2.2 ± 0.6
same,Distractibility summed sub-score of CFQ,[2],11 ± 3
same,False triggering summed sub-score of CFQ,[2],9 ± 4
same,Forgetfulness summed sub-score of CFQ,[2],13 ± 5
same,Total CFQ summed sub-score,[2],33 ± 11
same,CFQ % better vs. baseline: Do you bump into people?,[3],14% better
same,CFQ % better vs. baseline: Do you confuse left and right when giving people directions?,[3],22% better
same,CFQ % better vs. baseline: Do you daydream when you ought to be listening to something?,[3],28%
same,CFQ % better vs. baseline: Do you fail to hear people speaking to you when you are doing something?,[3],12% better
same,CFQ % better vs. baseline: Do you fail to listen to people's names when you are meeting them for the first time?,[3],22% better
same,CFQ % better vs. baseline: Do you fail to notice signposts on the road?,[3],30% better
same,CFQ % better vs. baseline: Do you fail to see what you want in a supermarket (although it's there)?,[3],15% better
same,CFQ % better vs. baseline: Do you find that you drop things?,[3],27% better
same,CFQ % better vs. baseline: Do you find that you forget appointments?,[3],30% better
same,CFQ % better vs. baseline: Do you find you accidentally misplace things like placing the fruit in the cupboard and the bowl in the refrigerator?,[3],13% better
same,CFQ % better vs. baseline: Do you find you can't quite remember something although it's “on the tip of your tongue”?,[3],20%
same,CFQ % better vs. baseline: Do you find you can't think of anything to say?,[3],27% better
same,CFQ % better vs. baseline: Do you find you forget people's names?,[3],20% better
same,CFQ % better vs. baseline: Do you find you forget what you came to the store to buy?,[3],33% better
same,CFQ % better vs. baseline: Do you find you forget whether you've turned off a light or locked the door?,[3],45%
same,CFQ % better vs. baseline: Do you find you forget which way to turn on a road you know well but rarely use?,[3],33% better
same,CFQ % better vs. baseline: Do you find you forget why you went from one place of the house to the other?,[3],39%
